Test results from US20240041042A1, “1-(PYRIDYL)-5-AZINYLPYRAZOLE DERIVATIVES, AND THEIR USE FOR CONTROL OF UNDESIRED PLANT GROWTH” (Bayer Aktiengesellschaft, priority 2020, published 2024).
Read-outs that look alike come from different tables or passages of the source. One block for each compound: values may come before it.

How the values were obtained:
Type in all cases: in vivo
[1] = tested on: Glycine max (GLXMA); conditions: pre-emergence, crop plant compatibility, in comparison to untreated controls
How it was run: (§1)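 Scoring: visual, % of untreated control, about 3 weeks after a pre-emergence application to the soil surface. Application used WP or EC formulations diluted in water with 0.5% additive at 600 l/ha; dosage levels are marked by suffixes a, b and c.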

[2] = tested on: Triticum aestivum (TRZAS); conditions: pre-emergence, crop plant compatibility, in comparison to untreated controls
How it was run: as §1

[3] = tested on: Zea mays (ZEAMX); conditions: pre-emergence, crop plant compatibility, in comparison to untreated controls
How it was run: as §1

[4] = tested on: Oryza sativa (ORYSA); conditions: pre-emergence, crop plant compatibility, in comparison to untreated controls
How it was run: as §1

[5] = tested on: Amaranthus retroflexus (AMARE); assay: Post-emergence herbicidal action against AMARE
How it was run: (§2)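 Greenhouse plants sprayed at the one-leaf stage, 2–3 weeks after sowing, with WP or EC formulations plus 0.5% additive at 600 l/ha water. Activity rated visually after about 3 weeks versus untreated controls (100% = dead, 0% = like control), at 320 g/ha or lower.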

[6] = tested on: Triticum aestivum (TRZAS); conditions: crop plant compatibility, effect vs untreated controls
How it was run: (§3)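 Foliar application at the one-leaf stage: WP/EC formulation, 0.5% additive, 600 l/ha water. Greenhouse-grown in sandy loam. Endpoint is visual % injury relative to untreated controls at about 3 weeks.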

[7] = tested on: Zea mays (ZEAMX); conditions: for Post-emergence action against ZEAMX in %: crop plant compatibility, effect vs untreated controls
How it was run: as §3

[8] = tested on: Oryza sativa (ORYSA); conditions: crop plant compatibility
How it was run: as §3

[9] = tested on: Setaria viridis (SETVI); assay: Pre-emergence herbicidal action against SETVI
How it was run: (§4)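 Read-out is visual percent damage relative to untreated pots, with 100% meaning dead plants and 0% meaning no difference, assessed roughly three weeks after treatment. Compounds were applied pre-emergence to the covering soil at up to 320 g/ha.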

[10] = tested on: Viola tricolor (VIOTR); assay: Post-emergence herbicidal action against VIOTR
How it was run: as §2

[11] = tested on: Avena fatua (AVEFA); assay: Post-emergence herbicidal action against AVEFA; conditions: visual rating about 3 weeks after treatment
How it was run: as §2

[12] = tested on: Viola tricolor (VIOTR); assay: Pre-emergence herbicidal action against VIOTR; conditions: 320 g/ha, Viola tricolor
How it was run: as §4

[13] = tested on: Echinochloa crus-galli (ECHCG); assay: Pre-emergence herbicidal action against ECHCG; conditions: dosage 320 g/ha
How it was run: as §4

[14] = tested on: Echinochloa crus-galli (ECHCG); assay: Post-emergence herbicidal action against ECHCG
How it was run: as §2

[15] = tested on: Lolium rigidum (LOLRI); assay: Pre-emergence herbicidal action against LOLRI; conditions: dosage 320 g/ha
How it was run: as §4

[16] = tested on: Abutilon theophrasti (ABUTH); assay: Post-emergence herbicidal action against ABUTH; conditions: visual rating about 3 weeks after treatment vs untreated controls (100% = plants have died, 0% = like control plants)
How it was run: as §2

[17] = tested on: Amaranthus retroflexus (AMARE); assay: Pre-emergence herbicidal action against AMARE; conditions: visual scoring after about 3 weeks vs untreated controls
How it was run: as §4

[18] = tested on: Alopecurus myosuroides (ALOMY); assay: Pre-emergence herbicidal action against ALOMY; conditions: 320 g/ha; scored visually after about 3 weeks; 100% = plants have died
How it was run: as §4

[19] = tested on: Lolium rigidum (LOLRI); assay: Post-emergence herbicidal action against LOLRI; conditions: dosage 320 g/ha
How it was run: as §2

[20] = tested on: Verconica persica (VERPE); assay: Post-emergence herbicidal action against VERPE; conditions: 320 g/ha, VERPE
How it was run: as §2

[21] = tested on: Polygonum convolvulus (POLCO); assay: Pre-emergence herbicidal action against POLCO; conditions: dosage 320 g/ha
How it was run: as §4

[22] = tested on: Setaria viridis (SETVI); assay: Post-emergence herbicidal action against SETVI
How it was run: as §2

[23] = tested on: Pharbitis purpurea (PHBPU); assay: Pre-emergence herbicidal action against PHBPU
How it was run: as §4

[24] = tested on: Polygonum convolvulus (POLCO); assay: Post-emergence herbicidal action against POLCO; conditions: dosage 320 g/ha
How it was run: as §2

[25] = tested on: Alopecurus myosuroides (ALOMY); assay: Post-emergence herbicidal action against ALOMY; conditions: visual rating about 3 weeks after treatment vs untreated controls (100% = plants have died, 0% = like control plants)
How it was run: as §2

[26] = tested on: Matricaria inodora (MATIN); assay: Post-emergence herbicidal action against MATIN
How it was run: as §2

[27] = tested on: Pharbitis purpurea (PHBPU); assay: Post-emergence herbicidal action against PHBPU
How it was run: as §2

[28] = tested on: Matricaria inodora (MATIN); assay: Pre-emergence herbicidal action against MATIN
How it was run: as §4

[29] = 80 g/ha, visual rating about 3 weeks after treatment vs untreated controls (100% = plants have died, 0% = like control plants)
[30] = 80 g/ha, effect in comparison to untreated controls
[31] = 320 g/ha, visual rating about 3 weeks after treatment
[32] = 320 g/ha, effect in comparison to untreated controls

Pre-emergence action against GLXMA in % ([1]; 80 g/ha): 0% | Pre-emergence action against TRZAS in % ([2]; 80 g/ha): 0% | Pre-emergence action against TRZAS in % ([2]; 320 g/ha): 20% | Pre-emergence action against ZEAMX in % ([3]; 80 g/ha): 20% | Pre-emergence action against ZEAMX in % ([3]; 320 g/ha): 20% | Pre-emergence action against ORYSA in % ([4]; 80 g/ha): 0% | Pre-emergence action against ORYSA in % ([4]; 320 g/ha): 0% | Post-emergence action against TRZAS in % ([6]; 20 g/ha): 0% | Post-emergence action against TRZAS in % ([6]; 80 g/ha): 0% | Post-emergence action against ZEAMX in % (crop plant compatibility) ([7]; 20 g/ha, ZEAMX, effect in comparison to untreated controls): 0% | Post-emergence action against ZEAMX in % ([7]; 80 g/ha): 0% | Post-emergence action against ORYSA in % ([8]; 20 g/ha, effect vs untreated controls): 0% | Post-emergence action against ORYSA in % [8, 30]: 0%
SMILES: COC(=O)[C@H](C)NC(=O)COc1nn(-c2ccnc(Cl)c2)c(-c2ccc(F)nc2)c1Br [III-18]
Post-emergence action against AMARE in % [5, 29]: 80%

Pre-emergence action against GLXMA in % ([1]; 80 g/ha): 0% | Pre-emergence action against TRZAS in % ([2]; 80 g/ha): 20% | Pre-emergence action against ZEAMX in % ([3]; 80 g/ha): 10% | Pre-emergence action against ZEAMX in % ([3]; 320 g/ha): 20% | Pre-emergence action against ORYSA in % ([4]; 80 g/ha): 0% | Pre-emergence action against ORYSA in % ([4]; 320 g/ha): 20% | Post-emergence action against ZEAMX in % ([7]; 80 g/ha): 10% | Post-emergence action against ZEAMX in % ([7]; 320 g/ha): 10% | Post-emergence action against ORYSA in % [8, 30]: 0% | Post-emergence action against ORYSA in % [8, 32]: 0%
SMILES: COC(=O)CCOC(=O)COc1nn(-c2ccnc(F)c2)c(-c2ccc(F)nc2)c1Br [III-27]
Pre-emergence action against SETVI in % ([9]; dosage 320 g/ha): 90% | Post-emergence action against AMARE in % [5, 29]: 80% | Post-emergence action against AMARE in % [5, 31]: 80% | Post-emergence action against VIOTR in % ([10]; 320 g/ha): 80%

Pre-emergence action against GLXMA in % ([1]; 80 g/ha): 10% | Pre-emergence action against GLXMA in % ([1]; 320 g/ha): 20% | Pre-emergence action against TRZAS in % ([2]; 80 g/ha): 10% | Post-emergence action against ORYSA in % [8, 30]: 0%
SMILES: COC(=O)CSc1nn(-c2ccccn2)c(-c2cncc(F)c2)c1Br [Example I-151]
Pre-emergence action against SETVI in % ([9]; dosage 80 g/ha): 90% | Pre-emergence action against SETVI in % ([9]; dosage 320 g/ha): 100% | Post-emergence action against AVEFA in % ([11]; 80 g/ha): 90% | Post-emergence action against AVEFA in % ([11]; 320 g/ha): 90% | Pre-emergence action against VIOTR in % [12]: 100% | Pre-emergence action against ECHCG in % [13]: 90% | Post-emergence action against ECHCG in % ([14]; dosage 80 g/ha): 90% | Post-emergence action against ECHCG in % ([14]; dosage 320 g/ha): 90% | Pre-emergence action against LOLRI in % [15]: 90% | Post-emergence action against ABUTH in % ([16]; 80 g/ha): 80% | Post-emergence action against ABUTH in % ([16]; 320 g/ha): 80% | Pre-emergence action against AMARE in % ([17]; 80 g/ha): 90% | Pre-emergence action against AMARE in % ([17]; 320 g/ha): 100% | Pre-emergence action against ALOMY [18]: 100% | Post-emergence action against LOLRI in % [19]: 90% | Post-emergence action against VERPE in % [20]: 90% | Pre-emergence action against POLCO in % [21]: 90% | Post-emergence action against SETVI in % ([22]; dosage 80 g/ha): 90% | Post-emergence action against SETVI in % ([22]; dosage 320 g/ha): 90% | Pre-emergence action against PHBPU in % ([23]; dosage 80 g/ha): 80% | Pre-emergence action against PHBPU in % ([23]; dosage 320 g/ha): 80% | Post-emergence action against AMARE in % [5, 29]: 90% | Post-emergence action against AMARE in % [5, 31]: 100% | Post-emergence action against VIOTR in % ([10]; 80 g/ha): 80% | Post-emergence action against VIOTR in % ([10]; 320 g/ha): 90% | Post-emergence action against POLCO in % [24]: 80% | Post-emergence action against ALOMY in % ([25]; 80 g/ha): 80% | Post-emergence action against ALOMY in % ([25]; 320 g/ha): 80% | Post-emergence action against MATIN in % ([26]; dosage 80 g/ha): 80% | Post-emergence action against MATIN in % ([26]; dosage 320 g/ha): 90% | Post-emergence action against PHBPU in % ([27]; dosage 80 g/ha): 90% | Post-emergence action against PHBPU in % ([27]; dosage 320 g/ha): 90% | Pre-emergence action against MATIN in % ([28]; dosage 80 g/ha): 90% | Pre-emergence action against MATIN in % ([28]; dosage 320 g/ha): 90%

Pre-emergence action against GLXMA in % ([1]; 80 g/ha): 20% | Pre-emergence action against TRZAS in % ([2]; 80 g/ha): 0% | Pre-emergence action against TRZAS in % ([2]; 320 g/ha): 0% | Pre-emergence action against ZEAMX in % ([3]; 80 g/ha): 0% | Pre-emergence action against ZEAMX in % ([3]; 320 g/ha): 0% | Pre-emergence action against ORYSA in % ([4]; 80 g/ha): 0% | Pre-emergence action against ORYSA in % ([4]; 320 g/ha): 0% | Post-emergence action against TRZAS in % ([6]; 80 g/ha): 0% | Post-emergence action against TRZAS in % ([6]; 320 g/ha): 0% | Post-emergence action against ZEAMX in % ([7]; 80 g/ha): 10% | Post-emergence action against ZEAMX in % ([7]; 320 g/ha): 10% | Post-emergence action against ORYSA in % [8, 30]: 0% | Post-emergence action against ORYSA in % [8, 32]: 0%
SMILES: O=C(O)COc1nn(-c2ccncc2)c(-c2ccc(F)nc2)c1Br [III-09]
Pre-emergence action against VIOTR in % [12]: 80% | Pre-emergence action against AMARE in % ([17]; 320 g/ha): 80% | Post-emergence action against AMARE in % [5, 31]: 80%
